pIC50: −log10 of the molar value.
What was measured:
[1] = Reversal of P-gp mediated multidrug resistance in human MCF7/ADM cells assessed as doxorubicin IC50 at 10 uM measured within 48 hrs by MTT assay (Rvb = 151.7 +/- 5 uM)
[2] = Reversal of P-gp mediated multidrug resistance in human MCF7/ADM cells assessed as doxorubicin IC50 at 5 uM measured within 48 hrs by MTT assay (Rvb = 151.7 +/- 5 uM)
[3] = Reversal of P-gp mediated multidrug resistance in human HepG2/DOX cells assessed as doxorubicin IC50 at 10 uM measured within 48 hrs by MTT assay (Rvb = 69.3 +/- 3.9 uM)
[4] = Reversal of P-gp mediated multidrug resistance in human HepG2/DOX cells assessed as doxorubicin IC50 at 5 uM measured within 48 hrs by MTT assay (Rvb = 69.3 +/- 3.9 uM)

`CCCN(C(=O)CCCCCCC(=O)N(CCC)[C@H]1CC2=CC(=O)O[C@]23C[C@H]1N1CCCC[C@H]13)[C@H]1CC2=CC(=O)O[C@]23C[C@H]1N1CCCC[C@H]13` showed a pIC50 [1] of 5.92, a pIC50 [2] of 4.84 and a pIC50 [3] of 6.52. For the same molecule, the pIC50 [4] was 5.85.
